Where a SMILES comes first, the peptide text is derived from it. [ ]: non-standard residue; d: D form. pS = N[C@@H](COP(=O)(O)O)C(=O)O
Key:
14-3-3 isoform epsilon = target: T1, 14-3-3 isoform epsilon (Homo sapiens, UniProt P62258); experiment: Label-free microscale thermophoresis (MST) binding, 14-3-3 epsilon; details: label-free MST, 0.6 µM 14-3-3 protein, 25 mM MES pH 6.5, 5 mM MgCl2, 5 mM CaCl2, 25°C; Kd from duplicate measurements; read-out: Affinity estimates by MicroScale Thermophoresis, 14-3-3 isoform epsilon (Kd)
T1 construct: His6; made in house; host or cells: Escherichia coli BL21 Rosetta (DE3)
T1 sequence (P62258 1-255): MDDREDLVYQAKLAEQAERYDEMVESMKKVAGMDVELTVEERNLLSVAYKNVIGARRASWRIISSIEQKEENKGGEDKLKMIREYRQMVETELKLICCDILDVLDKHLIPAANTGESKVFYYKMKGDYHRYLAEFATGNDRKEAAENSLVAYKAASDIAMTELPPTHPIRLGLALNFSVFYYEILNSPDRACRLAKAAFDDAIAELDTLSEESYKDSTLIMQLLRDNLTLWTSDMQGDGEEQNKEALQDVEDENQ
Experimental: The binding of phosphorylated sirtuin peptides (Fig. 1 ▸) was analyzed using the change in the intrinsic fluorescence signal of the 14-3-3 proteins measured with label-free microscale thermophoresis using a Nanotemper Monolith NT.LabelFree or NT.115. A typical binding experiment using 0.6 µM 14-3-3 protein was performed in a modified MST buffer consisting of 25 mM MES pH 6.5, 5 mM MgCl2, 5 mM CaCl2. The measurements were performed at 25°C using a LED power of 10–40%. All measurements were performed at least in duplicate, and the results shown are representative measurements individually fitted using GraFit 7 (Erathicus Software, Horley, United Kingdom).
Figure 1 Classification and analysis of sirtuin PSSM results for potential 14-3-3 phosphoserine binding sites. Peptides with a gray background were not analyzed experimentally. Score is the overall PSSM score for the phosphorylation site; rank is the order within the 17 proposed sirtuin binding sites. Conserved residues in the 14-3-3 motifs are marked in green. Residues with restricted (proline) or very flexible (glycine) protein backbone or with a very large side chain (tryptophan) are marked in red. Amino acids with the same or similar hydrophobicity/size are shown in magenta. Kd values from duplicate measurements are colored green for Kd < 100 µM. Fields marked in red indicate no binding or no successful experiment. TEXT PRINTED IN THE PICTURE: Sirt1 S26: Affinity estimates by MicroScale Thermophoresis [μM], 14-3-3 isoform sigma: none | Sirt1 S670: Affinity estimates by MicroScale Thermophoresis [μM], 14-3-3 isoform gamma: aggr.; Affinity estimates by MicroScale Thermophoresis [μM], 14-3-3 isoform epsilon: > 183; Affinity estimates by MicroScale Thermophoresis [μM], 14-3-3 isoform theta: 93; Affinity estimates by MicroScale Thermophoresis [μM], 14-3-3 isoform sigma: 5 | Sirt3 S103: Affinity estimates by MicroScale Thermophoresis [μM], 14-3-3 isoform gamma: aggr.; Affinity estimates by MicroScale Thermophoresis [μM], 14-3-3 isoform epsilon: > 267; Affinity estimates by MicroScale Thermophoresis [μM], 14-3-3 isoform theta: 52; Affinity estimates by MicroScale Thermophoresis [μM], 14-3-3 isoform sigma: 10 | Sirt3 S103wt: Affinity estimates by MicroScale Thermophoresis [μM], 14-3-3 isoform gamma: aggr.; Affinity estimates by MicroScale Thermophoresis [μM], 14-3-3 isoform theta: none; Affinity estimates by MicroScale Thermophoresis [μM], 14-3-3 isoform sigma: none | Sirt3 S105: Affinity estimates by MicroScale Thermophoresis [μM], 14-3-3 isoform gamma: aggr.; Affinity estimates by MicroScale Thermophoresis [μM], 14-3-3 isoform epsilon: > 215; Affinity estimates by MicroScale Thermophoresis [μM], 14-3-3 isoform theta: 60; Affinity estimates by MicroScale Thermophoresis [μM], 14-3-3 isoform sigma: none | Sirt5 S168: Affinity estimates by MicroScale Thermophoresis [μM], 14-3-3 isoform epsilon: aggr.; Affinity estimates by MicroScale Thermophoresis [μM], 14-3-3 isoform theta: aggr.; Affinity estimates by MicroScale Thermophoresis [μM], 14-3-3 isoform sigma: > 329 | Sirt6 T337: Affinity estimates by MicroScale Thermophoresis [μM], 14-3-3 isoform epsilon: > 420; Affinity estimates by MicroScale Thermophoresis [μM], 14-3-3 isoform sigma: 12 | Sirt6 S338: Affinity estimates by MicroScale Thermophoresis [μM], 14-3-3 isoform epsilon: 19; Affinity estimates by MicroScale Thermophoresis [μM], 14-3-3 isoform sigma: 24 | Sirt7 S136: Affinity estimates by MicroScale Thermophoresis [μM], 14-3-3 isoform epsilon: none; Affinity estimates by MicroScale Thermophoresis [μM], 14-3-3 isoform theta: 30; Affinity estimates by MicroScale Thermophoresis [μM], 14-3-3 isoform sigma: 49

14-3-3σ-ΔC = target: T2, 14-3-3σ-ΔC (Homo sapiens, UniProt P31947); experiment: Isothermal titration calorimetry (ITC); type: binding; details: Fig. 3c; nanoITC, 150 µM 14-3-3σ-ΔC in cell, fourfold-concentrated peptide, 2 µl injections, 25°C, one-site fit; duplicate, error between fits; read-out: apparent Kd, ITC
T2 construct: His6; made in house; host or cells: Escherichia coli BL21 Rosetta (DE3)
T2 sequence (P31947 1-231 limits assumed): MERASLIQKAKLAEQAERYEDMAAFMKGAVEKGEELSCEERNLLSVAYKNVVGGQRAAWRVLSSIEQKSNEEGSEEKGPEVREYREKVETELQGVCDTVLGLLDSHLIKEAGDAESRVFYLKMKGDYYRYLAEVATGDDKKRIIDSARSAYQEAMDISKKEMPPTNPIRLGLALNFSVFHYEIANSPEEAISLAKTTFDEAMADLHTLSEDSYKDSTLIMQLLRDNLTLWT
Experimental: Peptide ligands were freshly prepared in the exact same buffer as was used for the gel-filtration run. Samples were degassed and temperature-equilibrated using a degassing station (TA Instruments). A volume of 250 µl of 14-3-3σ-ΔC protein sample at a concentration of 150 µM was transferred into the sample cell of a nanoITC (TA Instruments) and 50 µl of a fourfold-concentrated phosphorylated peptide was loaded into the injection needle. Multiple injection measurements were carried out at 25°C with a 300 rev min^−1 stirring rate and 300 s spacing between each 2 µl injection. The heat quantity post-injection was determined by integration of the measured peaks. The Sirt1^pS670 peptide behaved best and was measured in duplicate. Subtraction of heat of dilution measurements, peak integration and one-site binding fits were performed with NanoAnalyze (TA Instruments). The reported errors are the errors between fits of the measured duplicates.
Figure 3 Affinity measurements of Sirt1^pS670 and different Sirt3 peptides for 14-3-3σ-ΔC protein using MST and ITC experiments. […] (b) MST experiments of titrations of 14-3-3σ-ΔC with Sirt3^pS105 (squares) or Sirt3^pS103 (two independent runs, filled triangles and triangles) endecamer peptides and, for comparison, with nonphosphoylated Sirt3^S103 peptide (circles).

Kd (14-3-3 isoform epsilon): > 183 µM | Kd (14-3-3σ-ΔC): 5 ± 4.2 µM
SMILES: CC(C)C[C@H](NC(=O)[C@@H](N)C(C)C)C(=O)N[C@@H](CO)C(=O)N[C@@H](CO)C(=O)N[C@@H](CO)C(=O)N[C@@H](COP(=O)(O)O)C(=O)N[C@@H](CS)C(=O)NCC(=O)N[C@@H](CO)C(=O)N[C@@H](CC(N)=O)C(=O)N[C@@H](CO)C(=O)O [Sirt1^pS670] (H-VLSSS[pS]CGSNS-OH)

— publication PMC12809495, “Potential 14-3-3 binding sites in sirtuins reveal extended phosphosite-recognition modes” (Acta Crystallographica Section F: Structural Biology …, 2026)
